Laboratory results as given in PubChem BioAssay AID2060348 (Molecular Pharmacology Branch, DTP, NCI, 2025).

Tested on: 885724-159-R-J1-PDC spheroids viability
Experiment: Anticancer human tumor 885724-159-R-J1-PDC patient-derived pancreatic adenocarcinoma cell line growth inhibition [TAK]
Settings: spheroids with HUVEC and MSC; for IC50: curve of first compound; for viability, T/C: stronger effect = lower value
Procedure, shortened: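 Spheroids of 60% malignant cells, 25% HUVEC and 15% hMSC were exposed to targeted agents combined with TAK-243 or ipatasertib. Concentrations started at or near clinical Cmax (10 microM if unknown) and descended in half-log steps.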

[1] = second compound 0.3 µM, first compound 0.0316 µM
[2] = second compound 0.3 µM, first compound 0.1 µM
[3] = second compound 0.3 µM, first compound 0.316 µM
[4] = second compound 0.3 µM, first compound 1 µM
[5] = second compound 0.949 µM, first compound 0.0316 µM
[6] = second compound 0.949 µM, first compound 0.1 µM
[7] = second compound 0.949 µM, first compound 0.316 µM
[8] = second compound 0.949 µM, first compound 1 µM
[9] = second compound 3 µM, first compound 0.0316 µM
[10] = second compound 3 µM, first compound 0.1 µM
[11] = second compound 3 µM, first compound 0.316 µM
[12] = second compound 3 µM, first compound 1 µM
[13] = second compound 9.49 µM, first compound 0.0316 µM
[14] = second compound 9.49 µM, first compound 0.1 µM
[15] = second compound 9.49 µM, first compound 0.316 µM
[16] = second compound 9.49 µM, first compound 1 µM
[17] = second compound 30 µM, first compound 0.0316 µM
[18] = second compound 30 µM, first compound 0.1 µM
[19] = second compound 30 µM, first compound 0.316 µM
[20] = second compound 30 µM, first compound 1 µM
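Also: spheroids exposed to drugs for seven days.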
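For viability, T/C in this document: 100% = DMSO vehicle control viability.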

| SMILES | IC50 (second compound 0.3 µM) [nM] | IC50 (second compound 0.949 µM) [nM] | IC50 (second compound 3 µM) [nM] | IC50 (second compound 9.49 µM) [nM] | IC50 (second compound 30 µM) [nM] | viability, T/C [1] [%] | viability, T/C [2] [%] | viability, T/C [3] [%] | viability, T/C [4] [%] | viability, T/C [5] [%] | viability, T/C [6] [%] | viability, T/C [7] [%] | viability, T/C [8] [%] | viability, T/C [9] [%] | viability, T/C [10] [%] | viability, T/C [11] [%] | viability, T/C [12] [%] | viability, T/C [13] [%] | viability, T/C [14] [%] | viability, T/C [15] [%] | other results |
| --- | --- | --- | --- | --- | --- | --- | --- | --- | --- | --- | --- | --- | --- | --- | --- | --- | --- | --- | --- | --- | --- |
| COc1c(OCCCN2CCOCC2)ccc2c3n(c(=NC(=O)c4cnc(N)nc4)nc12)CCN3 + CC(C)NCC(C(=O)N1CCN(c2ncnc3c2C(C)CC3O)CC1)c1ccc(Cl)cc1 | 4.05 | < 3.16 | < 3.16 | < 3.16 | < 3.16 | 27.3 | 19.4 | 13.4 | 12.3 | 20.3 | 14.8 | 12.1 | 10.8 | 16 | 13.7 | 11.6 | 11.2 | 13.8 | 11.3 | 9.95 | viability, T/C (second compound 0.3 µM, first compound 0.00316 µM): 52.4%; viability, T/C (second compound 0.3 µM, first compound 0.01 µM): 41.2%; viability, T/C (second compound 0.949 µM, first compound 0.00316 µM): 32.9%; viability, T/C (second compound 0.949 µM, first compound 0.01 µM): 27.1%; viability, T/C (second compound 3 µM, first compound 0.00316 µM): 26.9%; viability, T/C (second compound 3 µM, first compound 0.01 µM): 20.4%; viability, T/C (second compound 9.49 µM, first compound 0.00316 µM): 22.8%; viability, T/C (second compound 9.49 µM, first compound 0.01 µM): 18.9%; viability, T/C [16]: 10.2%; viability, T/C (second compound 30 µM, first compound 0.00316 µM): 18%; viability, T/C (second compound 30 µM, first compound 0.01 µM): 12.7%; viability, T/C [17]: 9.8%; viability, T/C [18]: 9.29%; viability, T/C [19]: 6.93%; viability, T/C [20]: 6.96% |
| Cc1nc(NC(=O)N2CCCC2C(N)=O)sc1-c1ccnc(C(C)(C)C(F)(F)F)c1 (stereo not given) + CC(C)NCC(C(=O)N1CCN(c2ncnc3c2C(C)CC3O)CC1)c1ccc(Cl)cc1 | 154 | < 31.6 | < 31.6 | < 31.6 | < 31.6 | 60.9 | 46.4 | 47.6 | 41.5 | 47.9 | 44.2 | 35.9 | 27.8 | 44.5 | 43.5 | 28.9 | 21.3 | 40 | 35.2 | 26.9 | viability, T/C (second compound 0.3 µM, first compound 3.16 µM): 27.5%; viability, T/C (second compound 0.3 µM, first compound 10 µM): 19.4%; viability, T/C (second compound 0.949 µM, first compound 3.16 µM): 20.8%; viability, T/C (second compound 0.949 µM, first compound 10 µM): 14.3%; viability, T/C (second compound 3 µM, first compound 3.16 µM): 19%; viability, T/C (second compound 3 µM, first compound 10 µM): 12.7%; viability, T/C [16]: 19.4%; viability, T/C (second compound 9.49 µM, first compound 3.16 µM): 14.3%; viability, T/C (second compound 9.49 µM, first compound 10 µM): 9.85%; viability, T/C [17]: 28.8%; viability, T/C [18]: 26.4%; viability, T/C [19]: 19.6%; viability, T/C [20]: 14.3%; viability, T/C (second compound 30 µM, first compound 3.16 µM): 10.7%; viability, T/C (second compound 30 µM, first compound 10 µM): 6.4% |
